Assay [1] addresses JAK1 (Homo sapiens, UniProt P23458). The assay can be described thus: Biochemical potency on JAK1, TR-FRET (LANCE Ultra kinase assay). To be noted: ATP corresponding to Km; cell-free; read-out: JAK1 inhibitory activity (pIC50) (converted). As to the method: (§1) The objective of this study was to assess the capability of compounds to inhibit all 4 JAK isoforms activity in a cell-free environment. Assay for JAK 1, JAK 2, JAK 3 and TYK2 were performed by Time-resolved fluorescence resonance energy transfer (TR-FRET) technology. It consists in the interaction of two labelled binding partners detected by the energy transfer from an excited donor to an acceptor dye and measurement of light emission by the acceptor dye. LANCE Ultra kinase assay was used. In presence of JAK 1, JAK 2, JAK 3 and TYK2 kinases and ATP (corresponding to Km), the ULight peptide substrate (LANCE Ulight-JAK-1 (Tyr1023) Peptide, Perkin Elmer, TRF0121) is phosphorylated. It is then captured by Eu-anti-phospho-substrate antibody (LANCE Eu-W1024 Anti-phosphotyrosine (PT66), Perkin Elmer, AD0069), which bring the Eu-chelate donor and ULight acceptor dyes into close proximity. Upon excitation at 320 nm, the Eu-chelate transfers its energy to the ULight dye, resulting in a fluorescent light emission at 665 nm.
(§2) Serial dilutions of compounds in pure DMSO are prepared from 10 mM DMSO stock solutions. Compounds were tested in 384-well plate for 11 consecutive 5-fold dilutions starting from 20 μM highest concentration (20 μM-[…]). 200 nL of compound were transferred from mother plate to test plate by using Mosquito (TTP labtech). Assay was performed in 384-well Perkin Elmer test plate in 20 μL assay volume (kinase reaction) and 40 μL total volume (stopping reagent and antibody detection reagents). In 10 μL of substrate solution (peptide+ATP) 30/50/20/10 nM of peptide and 20/0.7/0.2/12 μM of ATP were added for JAK 1, JAK 2, JAK 3 and TYK2 respectively. 10 μL of enzyme solution was added to kinase reaction at these concentrations: 0.15/0.083/0.025/0.144 ng/μL of JAK 1, JAK 2, JAK 3 and TYK2 respectively. After shaking and 1.5 h of incubation at r.t., 20 μL of Stop (10 μL EDTA) and Detection mixture (10 μL Europium-anti-phospho antibody, final: 0.5 nM) were added. Reading was performed after 1 h of incubation on a En Vision 2104 reader (Perkin Elmer).
(§3) Calculation of IC50 data, curves and QC analysis was performed by using Excel tool and GraphPadPrism software, v9. Briefly, individual concentration-effect curves are generated by plotting the logarithm of the tested concentration of tested compounds (X) vs. corresponding percent inhibition values (Y) using least squares (ordinary) fit. Best fit IC50 values are calculated using Log (inhibitor) vs. normalized response—Variable slope equation, where Y=100/(1+10^((LogIC50−X)*HillSlope)). QC criteria parameters (Z′, S:B, R2, HillSlope) were checked for every IC50 curve. Calculation of IC50 data, curves and QC analysis were made using Excel tools and GraphPadPrism software. QC criteria parameters: Z′≥0.5, Hill Slope range 0.5 to 5, S:B>2.
Background: In TR-FRET formats the signal depends on donor and acceptor labels being close together.

The target of assay [2] is JAK2 (Homo sapiens, UniProt O60674). The assay can be described thus: Biochemical potency on JAK2, TR-FRET (LANCE Ultra kinase assay). To be noted: ATP corresponding to Km; cell-free; read-out: JAK2 inhibitory activity (pIC50) (converted). On the procedure: as §1, §2, §3
Assay [3] deals with T1, JAK3 (Homo sapiens, UniProt P52333).
T1 sequence (P52333 1-1124): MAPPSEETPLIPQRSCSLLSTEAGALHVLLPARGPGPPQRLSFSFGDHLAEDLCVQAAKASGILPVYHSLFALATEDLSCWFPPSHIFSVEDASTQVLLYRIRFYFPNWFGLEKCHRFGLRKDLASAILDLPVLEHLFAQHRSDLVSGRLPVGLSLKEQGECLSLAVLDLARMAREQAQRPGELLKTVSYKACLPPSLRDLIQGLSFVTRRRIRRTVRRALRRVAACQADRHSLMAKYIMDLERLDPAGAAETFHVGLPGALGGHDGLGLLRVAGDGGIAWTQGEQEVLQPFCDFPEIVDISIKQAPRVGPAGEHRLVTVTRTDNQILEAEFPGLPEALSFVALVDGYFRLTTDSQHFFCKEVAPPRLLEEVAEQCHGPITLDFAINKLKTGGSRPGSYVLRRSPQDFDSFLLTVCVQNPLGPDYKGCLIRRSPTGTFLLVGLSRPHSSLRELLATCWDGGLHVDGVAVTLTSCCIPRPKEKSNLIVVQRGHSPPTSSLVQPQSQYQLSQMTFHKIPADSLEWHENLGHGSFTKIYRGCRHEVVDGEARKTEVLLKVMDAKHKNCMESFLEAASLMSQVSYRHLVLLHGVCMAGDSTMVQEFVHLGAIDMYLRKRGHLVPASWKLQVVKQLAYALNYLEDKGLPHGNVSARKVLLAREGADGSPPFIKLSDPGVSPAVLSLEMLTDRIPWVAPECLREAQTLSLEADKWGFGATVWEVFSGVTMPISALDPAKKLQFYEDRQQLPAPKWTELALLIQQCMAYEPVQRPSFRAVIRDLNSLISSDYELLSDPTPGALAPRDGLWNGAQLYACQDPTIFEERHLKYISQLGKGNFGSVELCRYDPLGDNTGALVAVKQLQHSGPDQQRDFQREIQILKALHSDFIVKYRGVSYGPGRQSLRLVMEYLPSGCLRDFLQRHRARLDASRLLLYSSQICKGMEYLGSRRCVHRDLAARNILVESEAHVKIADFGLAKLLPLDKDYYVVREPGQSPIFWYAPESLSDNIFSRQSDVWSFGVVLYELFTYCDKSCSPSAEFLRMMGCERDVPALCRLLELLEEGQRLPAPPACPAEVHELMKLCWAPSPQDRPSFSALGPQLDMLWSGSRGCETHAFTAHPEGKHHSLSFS
Description: Biochemical potency on JAK3, TR-FRET (LANCE Ultra kinase assay). To be noted: ATP corresponding to Km; cell-free; read-out: JAK3 inhibitory activity (pIC50) (converted). On the procedure:
as §1, §2, §3

In assay [4] the target is TYK2 (Homo sapiens, UniProt P29597). Description: Biochemical potency on Tyk2, TR-FRET (LANCE Ultra kinase assay). To be noted: ATP corresponding to Km; cell-free; read-out: TYK2 inhibitory activity (pIC50) (converted). On the procedure: as §1, §2, §3
In assay [5] the test system is pSTAT6 in BEAS-2B human cell line. Description: Inhibition of IL-13 induced pSTAT6 in BEAS. Format: cell-based. To be noted: for IC50: Homo sapiens, BEAS-2B, 0.5 h, IL-13 trigger, 30 min, parent compound; for Fold difference parent vs predicted acid metabolite: ratio=IC50 predicted acid metabolite/IC50 ester. As to the method:
BEAS-2B human cell line was seeded (100.000 cells/well) and incubated for 48 h at 37° C., 5% CO2, 95% humidity. Compounds were added and incubated 30 min followed by IL-13 as trigger. After 30 min incubation, cells were lysed and pSTAT6 determined by Fastscan phospho-stat6 (Tyr641) sandwich ELISA kit (cell signaling). Inhibitors were tested at 11 consecutive 5-fold dilutions starting from 10 μM (10 μM-[…]) in duplicate. Calculation of IC50 data, curves and QC analysis were made using Excel tools and GraphPadPrism software. QC criteria parameters: Z′≥0.35, Hill Slope range 0.5 to 5, S:B>2.

The source of these data is patent US20260337208A1, “HETEROCYCLIC DERIVATIVES AS JANUS KINASE INHIBITORS” (CHIESI FARMACEUTICI S.P.A., priority 2022, published 2026).

Chain of JAK1 (P23458 whole entry, canonical isoform): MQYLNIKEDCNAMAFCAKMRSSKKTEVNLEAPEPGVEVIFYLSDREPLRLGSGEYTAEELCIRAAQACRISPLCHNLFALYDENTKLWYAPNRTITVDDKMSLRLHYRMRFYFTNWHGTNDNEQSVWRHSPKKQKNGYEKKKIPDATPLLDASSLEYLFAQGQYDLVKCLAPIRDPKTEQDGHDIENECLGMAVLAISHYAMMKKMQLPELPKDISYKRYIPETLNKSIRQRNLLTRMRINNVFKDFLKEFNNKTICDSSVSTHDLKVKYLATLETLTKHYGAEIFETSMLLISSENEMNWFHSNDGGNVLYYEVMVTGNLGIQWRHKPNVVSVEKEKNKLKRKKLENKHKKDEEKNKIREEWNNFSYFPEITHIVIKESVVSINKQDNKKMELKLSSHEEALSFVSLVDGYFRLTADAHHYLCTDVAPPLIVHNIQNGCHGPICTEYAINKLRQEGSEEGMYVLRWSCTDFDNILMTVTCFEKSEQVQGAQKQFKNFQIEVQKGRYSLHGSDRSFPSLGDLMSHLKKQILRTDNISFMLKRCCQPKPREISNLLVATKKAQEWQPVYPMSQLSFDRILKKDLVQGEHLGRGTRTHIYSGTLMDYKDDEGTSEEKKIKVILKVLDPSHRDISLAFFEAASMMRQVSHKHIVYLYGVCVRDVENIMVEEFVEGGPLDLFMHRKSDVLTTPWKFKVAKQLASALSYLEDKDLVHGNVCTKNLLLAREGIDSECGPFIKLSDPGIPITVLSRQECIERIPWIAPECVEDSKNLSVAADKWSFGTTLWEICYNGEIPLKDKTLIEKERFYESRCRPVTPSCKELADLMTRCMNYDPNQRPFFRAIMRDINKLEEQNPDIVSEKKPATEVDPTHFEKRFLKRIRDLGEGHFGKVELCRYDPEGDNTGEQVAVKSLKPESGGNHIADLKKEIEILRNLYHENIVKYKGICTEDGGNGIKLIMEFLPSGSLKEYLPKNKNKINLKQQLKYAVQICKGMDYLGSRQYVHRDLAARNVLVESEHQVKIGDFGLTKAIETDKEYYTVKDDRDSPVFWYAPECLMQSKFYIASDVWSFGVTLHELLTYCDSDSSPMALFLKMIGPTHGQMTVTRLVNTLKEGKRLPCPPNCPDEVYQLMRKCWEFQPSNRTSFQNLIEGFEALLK
Chain of JAK2 (O60674 whole entry): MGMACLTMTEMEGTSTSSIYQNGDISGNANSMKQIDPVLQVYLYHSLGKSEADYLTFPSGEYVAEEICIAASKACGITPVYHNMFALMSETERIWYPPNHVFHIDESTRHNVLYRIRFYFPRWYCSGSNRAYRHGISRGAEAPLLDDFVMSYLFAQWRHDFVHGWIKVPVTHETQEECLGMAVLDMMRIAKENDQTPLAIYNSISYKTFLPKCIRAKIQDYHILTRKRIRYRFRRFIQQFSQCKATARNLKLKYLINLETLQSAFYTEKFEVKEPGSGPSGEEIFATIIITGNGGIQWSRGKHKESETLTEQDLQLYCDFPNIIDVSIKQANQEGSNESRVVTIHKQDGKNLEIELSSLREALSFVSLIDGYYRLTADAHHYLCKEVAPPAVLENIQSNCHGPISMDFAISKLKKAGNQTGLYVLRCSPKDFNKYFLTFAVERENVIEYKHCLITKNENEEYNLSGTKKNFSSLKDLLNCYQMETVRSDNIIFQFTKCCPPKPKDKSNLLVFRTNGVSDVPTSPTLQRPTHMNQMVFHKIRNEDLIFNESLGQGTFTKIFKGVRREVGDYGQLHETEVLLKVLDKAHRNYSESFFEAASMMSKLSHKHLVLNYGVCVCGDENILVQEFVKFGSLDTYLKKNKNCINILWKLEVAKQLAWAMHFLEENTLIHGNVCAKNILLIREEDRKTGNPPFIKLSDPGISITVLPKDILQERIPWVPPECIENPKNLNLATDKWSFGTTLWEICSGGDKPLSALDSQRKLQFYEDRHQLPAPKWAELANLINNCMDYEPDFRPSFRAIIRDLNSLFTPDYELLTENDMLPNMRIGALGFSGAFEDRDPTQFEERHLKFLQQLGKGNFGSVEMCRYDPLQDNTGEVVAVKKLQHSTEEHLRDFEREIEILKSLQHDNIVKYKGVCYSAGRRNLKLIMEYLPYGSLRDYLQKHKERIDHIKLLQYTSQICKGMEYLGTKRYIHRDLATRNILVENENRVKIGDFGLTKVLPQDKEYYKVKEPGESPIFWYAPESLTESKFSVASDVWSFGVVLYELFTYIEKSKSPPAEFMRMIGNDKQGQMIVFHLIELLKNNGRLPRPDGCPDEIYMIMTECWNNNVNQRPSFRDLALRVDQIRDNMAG
Chain of TYK2 (P29597 whole entry): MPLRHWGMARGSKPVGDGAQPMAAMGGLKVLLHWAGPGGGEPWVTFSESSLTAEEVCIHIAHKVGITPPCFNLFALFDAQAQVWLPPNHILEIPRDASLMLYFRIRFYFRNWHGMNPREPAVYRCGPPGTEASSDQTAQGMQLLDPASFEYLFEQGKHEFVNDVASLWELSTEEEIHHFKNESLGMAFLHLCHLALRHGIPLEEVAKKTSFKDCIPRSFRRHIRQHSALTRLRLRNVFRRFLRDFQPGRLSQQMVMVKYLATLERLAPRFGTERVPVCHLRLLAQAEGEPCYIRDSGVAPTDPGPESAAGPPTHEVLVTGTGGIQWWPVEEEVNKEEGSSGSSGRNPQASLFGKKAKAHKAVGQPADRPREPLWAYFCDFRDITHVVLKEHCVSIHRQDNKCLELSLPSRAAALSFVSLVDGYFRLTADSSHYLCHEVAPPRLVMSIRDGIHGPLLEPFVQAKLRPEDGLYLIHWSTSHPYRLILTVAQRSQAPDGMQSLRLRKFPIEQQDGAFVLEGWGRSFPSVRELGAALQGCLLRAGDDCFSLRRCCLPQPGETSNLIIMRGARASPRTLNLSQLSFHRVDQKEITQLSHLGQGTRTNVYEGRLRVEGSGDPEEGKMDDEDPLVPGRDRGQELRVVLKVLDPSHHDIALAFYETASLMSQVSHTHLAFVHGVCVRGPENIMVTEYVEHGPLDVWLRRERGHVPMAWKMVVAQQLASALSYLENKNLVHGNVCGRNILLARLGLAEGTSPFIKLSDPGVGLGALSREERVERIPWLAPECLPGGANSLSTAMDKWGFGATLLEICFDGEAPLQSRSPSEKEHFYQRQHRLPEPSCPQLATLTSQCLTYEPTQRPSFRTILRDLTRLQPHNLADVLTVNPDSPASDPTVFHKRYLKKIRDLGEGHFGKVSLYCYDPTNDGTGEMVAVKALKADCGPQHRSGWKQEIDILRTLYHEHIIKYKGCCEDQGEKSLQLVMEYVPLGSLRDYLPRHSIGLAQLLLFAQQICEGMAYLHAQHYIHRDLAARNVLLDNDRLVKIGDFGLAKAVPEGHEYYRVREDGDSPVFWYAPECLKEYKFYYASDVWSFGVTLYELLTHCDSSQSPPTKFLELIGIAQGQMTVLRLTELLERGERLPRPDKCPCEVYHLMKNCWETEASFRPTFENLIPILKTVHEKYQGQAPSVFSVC

Turning to `CCC(C)OC(=O)C1CCN(CCNC(=O)c2nn(-c3cc4c(cc3OC)NCCO4)c3cc(-c4cnn5cccnc45)ncc23)CC1` (stereo not drawn) [Example 10, sec-butyl 1-(2-(1-(6-methoxy-3,4-dihydro-2H-benzo[b][1,4]oxazin-7-yl)-6-(pyrazolo[1,5-a]pyrimidin-3-yl)-1H-pyrazolo[4,3-c]pyridine-3-carboxamido)ethyl)piperidine-4-carboxylate], the IC50 in assay [1] is at most 5.01 nM; in assay [2], at most 5.01 nM; in assay [3], at most 5.01 nM; in assay [4], 5.01 to 50.1 nM; in assay [5] it was at most 5.01 nM. Moreover, the “Fold difference parent vs predicted acid metabolite” value in assay [5] is on record as “kkkk (ratio≥200)”.

On to `COc1cc2c(cc1-n1nc(C(=O)NCCN3CCC(C(=O)OC4CC4)CC3)c3cnc(-c4cnn5cccnc45)cc31)OCCN2` [Example 11, cyclopropyl 1-(2-(1-(6-methoxy-3,4-dihydro-2H-benzo[b][1,4]oxazin-7-yl)-6-(pyrazolo[1,5-a]pyrimidin-3-yl)-1H-pyrazolo[4,3-c]pyridine-3-carboxamido)ethyl)piperidine-4-carboxylate], for which the IC50 in assay [1] was at most 5.01 nM; in assay [2], at most 5.01 nM; in assay [3] it was at most 5.01 nM; in assay [4] it was 5.01 to 50.1 nM; in assay [5], at most 5.01 nM. In assay [5], the “Fold difference parent vs predicted acid metabolite” value was “kkkk (ratio≥200)”.

With `COc1cc2c(cc1-n1nc(C(=O)NCCN3CCC(C(=O)OC4CCCC4)CC3)c3cnc(-c4cnn5cccnc45)cc31)OCCN2` [Example 12, cyclopentyl 1-(2-(1-(6-methoxy-3,4-dihydro-2H-benzo[b][1,4]oxazin-7-yl)-6-(pyrazolo[1,5-a]pyrimidin-3-yl)-1H-pyrazolo[4,3-c]pyridine-3-carboxamido)ethyl)piperidine-4-carboxylate], the IC50 in assay [1] is at most 5.01 nM; in assay [2] it was at most 5.01 nM; in assay [3] it was at most 5.01 nM; in assay [4] it was 5.01 to 50.1 nM; in assay [5], at most 5.01 nM. For the same compound, the “Fold difference parent vs predicted acid metabolite” value in assay [5] was “kkkk (ratio≥200)”.

Turning to `COc1cc2c(cc1-n1nc(C(=O)NCCN3CCC(C(=O)OCC(F)(F)F)CC3)c3cnc(-c4cnn5cccnc45)cc31)OCCN2` [Example 13, 2,2,2-trifluoroethyl 1-(2-(1-(6-methoxy-3,4-dihydro-2H-benzo[b][1,4]oxazin-7-yl)-6-(pyrazolo[1,5-a]pyrimidin-3-yl)-1H-pyrazolo[4,3-c]pyridine-3-carboxamido)ethyl)piperidine-4-carboxylate], the IC50 was at most 5.01 nM in assay [1]; at most 5.01 nM in assay [2]; at most 5.01 nM in assay [3]; 5.01 to 50.1 nM in assay [4]; at most 5.01 nM in assay [5]. The “Fold difference parent vs predicted acid metabolite” value in assay [5] is reported as “kkkk (ratio≥200)”.

For `COc1cc2c(cc1-n1nc(C(=O)NCCN3CCC(C(=O)OCC(C)(C)O)CC3)c3cnc(-c4cnn5cccnc45)cc31)OCCN2` [Example 14, 2-hydroxy-2-methylpropyl 1-(2-(1-(6-methoxy-3,4-dihydro-2H-benzo[b][1,4]oxazin-7-yl)-6-(pyrazolo[1,5-a]pyrimidin-3-yl)-1H-pyrazolo[4,3-c]pyridine-3-carboxamido)ethyl)piperidine-4-carboxylate], the IC50 was at most 5.01 nM in assay [1]; at most 5.01 nM in assay [2]; at most 5.01 nM in assay [3]; 5.01 to 50.1 nM in assay [4]; at most 5.01 nM in assay [5]. Also, the “Fold difference parent vs predicted acid metabolite” value in assay [5] was “kkkk (ratio≥200)”.

In the case of `COc1cc2c(cc1-n1nc(C(=O)NCCN3CCC(C(=O)OCC(C)(C)CO)CC3)c3cnc(-c4cnn5cccnc45)cc31)OCCN2` [Example 15, 3-hydroxy-2,2-dimethylpropyl 1-(2-(1-(6-methoxy-3,4-dihydro-2H-benzo[b][1,4]oxazin-7-yl)-6-(pyrazolo[1,5-a]pyrimidin-3-yl)-1H-pyrazolo[4,3-c]pyridine-3-carboxamido)ethyl)piperidine-4-carboxylate], the IC50 in assay [1] was at most 5.01 nM; in assay [2], at most 5.01 nM; in assay [3], at most 5.01 nM; in assay [4], 5.01 to 50.1 nM; in assay [5], at most 5.01 nM. In addition, in assay [5], the “Fold difference parent vs predicted acid metabolite” value is recorded as “kkkk (ratio≥200)”.
